For data set [1] the following is noted: 84% water/16% propylene glycol, ambient temperature.
The next data set in a line: physchem. The note with it: water, thermodynamic from solid.

Converted amounts (≈) assume the structure as drawn.

Usually thermodynamic solubility stands for the concentration in solution at equilibrium with solid.

Experimental for physchem: Analyses were performed using the Perkin Elmer Lambda 5 UV/Vis Spectrophotometer.
Two sets of standards were prepared by serial dilution of: • 1. 10% poloxamer P407/1% Propofol solution in water. • 2. 1% Propofol solution in ethanol (EtOH).
Dilutions were performed with water and EtOH respectively. The standards were further diluted one hundred fold prior to measurement of their UV absorption spectra recorded.

As to `CC(C)c1cccc(C(C)C)c1O` [Propofol, 2,6-bis(1-methylethyl)phenol], in data set [1], the “increase of solubility of Propofol over water alone” value is reported as “approximately 50%”. The compound also registered a thermodynamic solubility in the data set “physchem” of roughly 1000 µM (≈ 178 µg/mL).

These data come from patent US7166303B2, “Anesthetic formulations” (Maelor Pharmaceuticals Limited, priority 2000, dated 2007).
